Laboratory results from patent US20230270114A1, “FUNGICIDAL COMPOSITIONS” (SYNGENTA CROP PROTECTION AG, priority 2020, published 2023).
Where two headings read alike, the source gives them in different places.

Legend:
[1] = system: Alternaria solani; test: Example A1: Alternaria solani / tomato / leaf disc (early blight); format: in vivo; settings: foliar, tomato leaf disks inoculated 2 days after application, compared to untreated control
[2] = system: Botryotinia fuckeliana (Botrytis cinerea); test: Example A2: Botryotinia fuckeliana (Botrytis cinerea) / liquid culture (gray mould); format: cell-based; settings: read-out: control of Botryotinia fuckeliana
From the text: Example A2: Botryotinia Fuckeliana (Botrytis Cinerea) / Liquid Culture (Gray Mould) Conidia of the fungus from cryogenic storage are directly mixed into nutrient broth (Vogels broth). […] […].38.

[3] = system: Glomerella lagenarium (Colletotrichum lagenarium); test: Example A3: Glomerella lagenarium (Colletotrichum lagenarium) / liquid culture (anthracnose); format: cell-based; settings: Colletotrichum orbiculare; read-out: control of Glomerella lagenarium
[4] = system: Monographella nivalis (Microdochium nivale); test: Example A6: Monographella nivalis (Microdochium nivale) / liquid culture (foot rot cereals); format: cell-based; settings: read-out: control of Monographella nivalis
[5] = system: Phakopsora pachyrhizi; test: Example A8: Phakopsora pachyrhizi / soybean / preventative (soybean rust); format: in vivo; settings: foliar, soybean leaf disks preventative, inoculated one day after application, compared to untreated control
[6] = system: Puccinia recondita f. sp. tritici; format: in vivo; settings: foliar, wheat leaf disc preventative, inoculated 1 day after application, compared to untreated control
[7] = system: Magnaporthe grisea (Pyricularia oryzae); test: whole plant or invertebrate; format: in vivo; settings: foliar, read-out: control of Magnaporthe grisea
[8] = system: Pyrenophora teres; test: Example A12: Pyrenophora teres / barley / leaf disc preventative (net blotch); format: in vivo; settings: foliar, inoculated 2 days after application, compared to untreated control
[9] = system: Mycosphaerella arachidis (Cercospora arachidicola); test: Example A7: Mycosphaerella arachidis (Cercospora arachidicola) / liquid culture (early leaf spot); format: cell-based; settings: read-out: control of Mycosphaerella arachidis
[10] = system: Puccinia recondita f. sp. tritici; format: in vivo; settings: foliar, 24 h, wheat leaf disc curative, applied 1 day after inoculation, compared to untreated control
[11] = system: Mycosphaerella graminicola (Septoria tritici); test: Example A14: Mycosphaerella graminicola (Septoria tritici) / liquid culture (Septoria blotch); format: cell-based; settings: Zymoseptoria tritici; read-out: control of Mycosphaerella graminicola

Structure (SMILES) | pest or weed control at 200 ppm [1] [%] | inhibition of growth at 20 ppm [2] [%] | inhibition of growth at 20 ppm [3] [%] | inhibition of growth at 20 ppm [4] [%] | pest or weed control at 200 ppm [5] [%] | pest or weed control at 200 ppm [6] [%] | pest or weed control at 200 ppm [7] [%] | pest or weed control at 200 ppm [8] [%] | inhibition of growth at 20 ppm [9] [%] | pest or weed control at 200 ppm [10] [%] | inhibition of growth at 20 ppm [11] [%] | pest or weed control at 200 ppm ([7]; 200 ppm) [%] | melting point [°C]
Cc1sc(N(C(=O)c2ccccc2)c2cc(F)nc(F)c2)nc1C(=O)NC1CCC1(C)C (stereo not drawn) [X.35, 2-[benzoyl-(2,6-difluoro-4-pyridyl)amino]-N-(2,2-dimethylcyclobutyl)-5-methylthiazole-4-carboxamide] | ≥ 80 | ≥ 70 | ≥ 80 | ≥ 80 | ≥ 80 | ≥ 80 | ≥ 80 | ≥ 80 |  |  |  |  | 
CCOC(=O)C(=O)N(c1cc(F)nc(F)c1)c1nc(C(=O)NC2CCC2(C)C)c(C)s1 (stereo not drawn) [X.34, ethyl 2-[(2,6-difluoro-4-pyridyl)-[4-[(2,2-dimethylcyclobutyl)carbamoyl]-5-methyl-thiazol-2-yl]amino]-2-oxo-acetate] | ≥ 80 | ≥ 70 | ≥ 80 | ≥ 80 | ≥ 80 | ≥ 80 | ≥ 80 | ≥ 80 | ≥ 80 | ≥ 80 | ≥ 80 |  | 
CC(=O)N(c1cc(F)nc(F)c1)c1nc(C(=O)NC2CCC2(C)C)c(C)s1 (stereo not drawn) [X.36, 2-[acetyl-(2,6-difluoro-4-pyridyl)amino]-N-(2,2-dimethylcyclobutyl)-5-methylthiazole-4-carboxamide] | ≥ 80 | ≥ 70 | ≥ 80 | ≥ 80 |  | ≥ 80 | ≥ 80 | ≥ 80 |  |  | ≥ 80 |  | 
Cc1sc(N(C(=O)COCc2ccccc2)c2cc(F)nc(F)c2)nc1C(=O)NC1CCC1(C)C (stereo not drawn) [X.14, 2-[(2-benzyloxyacetyl)-(2,6-difluoro-4-pyridyl)amino]-N-(2,2-dimethylcyclobutyl)-5-methyl-thiazole-4-carboxamide] | ≥ 80 | ≥ 70 | ≥ 80 | ≥ 80 | ≥ 80 | ≥ 80 | ≥ 80 | ≥ 80 |  | ≥ 80 | ≥ 80 |  | 
Cc1sc(N(C(=O)CCl)c2cc(F)nc(F)c2)nc1C(=O)NC1CCC1(C)C (stereo not drawn) [X.17, 2-[(2-chloroacetyl)-(2,6-difluoro-4-pyridyl)amino]-N-(2,2-dimethylcyclobutyl)-5-methyl-thiazole-4-carboxamide] | ≥ 80 |  | ≥ 80 | ≥ 80 | ≥ 80 | ≥ 80 | ≥ 80 | ≥ 80 | ≥ 80 | ≥ 80 | ≥ 80 |  | 
COCC(=O)N(c1cc(F)nc(F)c1)c1nc(C(=O)NC2CCC2(C)C)c(C)s1 (stereo not drawn) [X.29, 2-[(2,6-difluoro-4-pyridyl)-(2-methoxyacetyl)amino]-N-(2,2-dimethylcyclobutyl)-5-methyl-thiazole-4-carboxamide] | ≥ 80 | ≥ 70 | ≥ 80 | ≥ 80 | ≥ 80 | ≥ 80 | ≥ 80 | ≥ 80 | ≥ 80 | ≥ 80 | ≥ 80 |  | 
Cc1sc(N(C=O)c2cc(F)nc(F)c2)nc1C(=O)NC1CCC1(C)C (stereo not drawn) [X.33, 2-[(2,6-difluoro-4-pyridyl)-formyl-amino]-N-(2,2-dimethylcyclobutyl)-5-methylthiazole-4-carboxamide] | ≥ 80 | ≥ 70 | ≥ 80 | ≥ 80 | ≥ 80 | ≥ 80 | ≥ 80 | ≥ 80 | ≥ 80 | ≥ 80 | ≥ 80 |  | 
Cc1sc(N(C(=O)CF)c2cc(F)nc(F)c2)nc1C(=O)NC1CCC1(C)C (stereo not drawn) [X.27, 2-[(2,6-difluoro-4-pyridyl)-(2-fluoroacetyl)amino]-N-(2,2-dimethylcyclobutyl)-5-methyl-thiazole-4-carboxamide] | ≥ 80 |  | ≥ 80 | ≥ 80 | ≥ 80 | ≥ 80 |  | ≥ 80 | ≥ 80 | ≥ 80 | ≥ 80 | ≥ 80 | 
Cc1sc(N(C(=O)C(C)C)c2cc(F)nc(F)c2)nc1C(=O)NC1CCC1(C)C (stereo not drawn) [X.38, 2-[(2,6-difluoro-4-pyridyl)-(2-methylpropanoyl)amino]-N-(2,2-dimethylcyclobutyl)-5-methyl-thiazole-4-carboxamide] | ≥ 80 | ≥ 70 | ≥ 80 | ≥ 80 | ≥ 80 | ≥ 80 | ≥ 80 | ≥ 80 |  | ≥ 80 |  |  | 123 to 126
CCOCC(=O)N(c1cc(F)nc(F)c1)c1nc(C(=O)NC2CCC2(C)C)c(C)s1 (stereo not drawn) [X.15, 2-[(2,6-difluoro-4-pyridyl)-(2-ethoxyacetyl)amino]-N-(2,2-dimethylcyclobutyl)-5-methyl-thiazole-4-carboxamide] | ≥ 80 | ≥ 70 | ≥ 80 | ≥ 80 | ≥ 80 | ≥ 80 | ≥ 80 | ≥ 80 |  | ≥ 80 | ≥ 80 |  | 
